Columns and labels:
Test in all cases: relative viability (nuclei count vs DMSO), 5 days (fraction); higher = more cells survive
NCI-H838 = system: NCI-H838
How it was run: (§1)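 The day after seeding in 1536-well plates, lung cancer cell lines were treated by pin tool with a single drug, or with a fixed anchor-drug dose together with five library-drug doses (not always all listed) in √10 steps. After 5 days, a combined fix-and-stain solution (final 0.05% Triton X-100, 1% formaldehyde, 1 ug/ml Hoechst) was added. Nuclei counted on 4× images gave relative viability as treated counts over vehicle counts, reported as the median of duplicate plates.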

A-427 = system: A-427
How it was run: as §1

NCI-H23 = system: NCI-H23
How it was run: as §1

LCLC-103H = system: LCLC-103H
How it was run: as §1

LXF-289 = system: LXF-289
How it was run: as §1

201T = system: 201T
How it was run: as §1

PC-3 [JPC-3] = system: PC-3 [JPC-3]
How it was run: as §1

LCLC-97TM1 = system: LCLC-97TM1
How it was run: as §1

RERF-LC-KJ = system: RERF-LC-KJ
How it was run: as §1

LOU-NH91 = system: LOU-NH91
How it was run: as §1

UMC-11 = system: UMC-11
How it was run: as §1

**Q.** For `Cc1csc(=NC2CCCCC2)n1/N=C/c1ccc(O)c(O)c1O` [MIM1] + CCNC(=O)c1noc(-c2cc(C(C)C)c(O)cc2O)c1-c1ccc(CN2CCOCC2)cc1 [Luminespib] (partner 0.01 µM), which relative viability (NCI-H838; first compound 0.2 µM) is on record?
**A.** 0.372

**Q.** And the relative viability (NCI-H838; first compound 0.6325 µM)?
**A.** 0.317

**Q.** And the relative viability (NCI-H838; first compound 2 µM)?
**A.** 0.288

**Q.** And the relative viability (NCI-H838; first compound 6.325 µM)?
**A.** 0.267

**Q.** And the relative viability (NCI-H838; first compound 20 µM)?
**A.** 0.16

**Q.** And the relative viability (A-427; first compound 0.2 µM)?
**A.** 0.832

**Q.** And the relative viability (A-427; first compound 0.6325 µM)?
**A.** 1.06

**Q.** And the relative viability (A-427; first compound 2 µM)?
**A.** 0.955

**Q.** What about the relative viability (A-427; first compound 6.325 µM) of the same molecule?
**A.** 0.747

**Q.** And the relative viability (A-427; first compound 20 µM)?
**A.** 0.267

**Q.** And the relative viability (NCI-H23; first compound 0.2 µM)?
**A.** 0.262

**Q.** And the relative viability (NCI-H23; first compound 0.6325 µM)?
**A.** 0.208

**Q.** What about the relative viability (NCI-H23; first compound 6.325 µM) of the same molecule?
**A.** 0.198

**Q.** And the relative viability (NCI-H23; first compound 20 µM)?
**A.** 0.211

**Q.** What about the relative viability (LCLC-103H; first compound 0.2 µM) of the same molecule?
**A.** 1.03

**Q.** What about the relative viability (LCLC-103H; first compound 0.6325 µM) of the same molecule?
**A.** 0.908

**Q.** And the relative viability (LCLC-103H; first compound 2 µM)?
**A.** 0.908

**Q.** And the relative viability (LCLC-103H; first compound 6.325 µM)?
**A.** 0.632

**Q.** And the relative viability (LCLC-103H; first compound 20 µM)?
**A.** 0.419

**Q.** What about the relative viability (LXF-289; first compound 0.2 µM) of the same molecule?
**A.** 0.708

**Q.** And the relative viability (LXF-289; first compound 0.6325 µM)?
**A.** 0.649

**Q.** What about the relative viability (LXF-289; first compound 2 µM) of the same molecule?
**A.** 0.659

**Q.** And the relative viability (LXF-289; first compound 6.325 µM)?
**A.** 0.54

**Q.** What about the relative viability (LXF-289; first compound 20 µM) of the same molecule?
**A.** 0.453

**Q.** What about the relative viability (201T; first compound 0.2 µM) of the same molecule?
**A.** 1.03

**Q.** And the relative viability (201T; first compound 0.6325 µM)?
**A.** 1.05

**Q.** What about the relative viability (201T; first compound 2 µM) of the same molecule?
**A.** 1.03

**Q.** What about the relative viability (201T; first compound 6.325 µM) of the same molecule?
**A.** 0.548

**Q.** What about the relative viability (201T; first compound 20 µM) of the same molecule?
**A.** 0.368

**Q.** What about the relative viability (PC-3 [JPC-3]; first compound 0.2 µM) of the same molecule?
**A.** 0.508

**Q.** What about the relative viability (PC-3 [JPC-3]; first compound 0.6325 µM) of the same molecule?
**A.** 0.661

**Q.** And the relative viability (PC-3 [JPC-3]; first compound 2 µM)?
**A.** 0.674

**Q.** What about the relative viability (PC-3 [JPC-3]; first compound 6.325 µM) of the same molecule?
**A.** 0.65

**Q.** And the relative viability (PC-3 [JPC-3]; first compound 20 µM)?
**A.** 0.594

**Q.** And the relative viability (LCLC-97TM1; first compound 0.2 µM)?
**A.** 0.783

**Q.** And the relative viability (LCLC-97TM1; first compound 0.6325 µM)?
**A.** 0.733

**Q.** What about the relative viability (LCLC-97TM1; first compound 2 µM) of the same molecule?
**A.** 0.755

**Q.** What about the relative viability (LCLC-97TM1; first compound 6.325 µM) of the same molecule?
**A.** 0.512

**Q.** What about the relative viability (LCLC-97TM1; first compound 20 µM) of the same molecule?
**A.** 0.238

**Q.** And the relative viability (RERF-LC-KJ; first compound 0.2 µM)?
**A.** 1.21

**Q.** What about the relative viability (RERF-LC-KJ; first compound 0.6325 µM) of the same molecule?
**A.** 1.26

**Q.** What about the relative viability (RERF-LC-KJ; first compound 2 µM) of the same molecule?
**A.** 0.73

**Q.** And the relative viability (RERF-LC-KJ; first compound 6.325 µM)?
**A.** 0.416

**Q.** What about the relative viability (RERF-LC-KJ; first compound 20 µM) of the same molecule?
**A.** 0.284

**Q.** What about the relative viability (LOU-NH91; first compound 0.2 µM) of the same molecule?
**A.** 0.338

**Q.** What about the relative viability (LOU-NH91; first compound 0.6325 µM) of the same molecule?
**A.** 0.338

**Q.** What about the relative viability (LOU-NH91; first compound 2 µM) of the same molecule?
**A.** 0.32

**Q.** What about the relative viability (LOU-NH91; first compound 6.325 µM) of the same molecule?
**A.** 0.271

**Q.** What about the relative viability (LOU-NH91; first compound 20 µM) of the same molecule?
**A.** 0.268

**Q.** What about the relative viability (UMC-11; first compound 0.2 µM) of the same molecule?
**A.** 1.03

**Q.** What about the relative viability (UMC-11; first compound 2 µM) of the same molecule?
**A.** 1.23

**Q.** And the relative viability (UMC-11; first compound 6.325 µM)?
**A.** 0.686

**Q.** And the relative viability (UMC-11; first compound 20 µM)?
**A.** 0.369
